Laboratory results taken from ChEMBL document CHEMBL1135459, “Novel class of potent 4-arylalkyl substituted 3-isoxazolol GABA(A) antagonists: synthesis, pharmacology, and molecular modeling” (J Med Chem, 2002).

Columns and labels:
[1] = organism: Mus musculus; assay: Electrophysiology using Whole-cell patch-clamp recordings in mouse embryos; type: functional, organism-based
[2] = molecular target: Gamma-aminobutyric acid type B receptor subunit 1 (Rattus norvegicus, UniProt Q9Z0U4); assay: Affinity for GABA-B receptor by inhibiting GABA uptake into rat brain synaptosomes; type: subcellular
[3] = molecular target: GABA-A receptor; anion channel; assay: Affinity for GABA-A receptor alpha by inhibiting binding of [3H]muscimol to rat brain synaptosomes; type: subcellular
[4] = system: Mus musculus; assay: Convulsant effect in mice after intracerebroventricular (icv) administration; type: functional; settings: central
[5] = system: Mus musculus; assay: Convulsant effect in mice after subcutaneous (sc) administration; type: functional

Sequence of Gamma-aminobutyric acid type B receptor subunit 1 (Q9Z0U4 whole entry): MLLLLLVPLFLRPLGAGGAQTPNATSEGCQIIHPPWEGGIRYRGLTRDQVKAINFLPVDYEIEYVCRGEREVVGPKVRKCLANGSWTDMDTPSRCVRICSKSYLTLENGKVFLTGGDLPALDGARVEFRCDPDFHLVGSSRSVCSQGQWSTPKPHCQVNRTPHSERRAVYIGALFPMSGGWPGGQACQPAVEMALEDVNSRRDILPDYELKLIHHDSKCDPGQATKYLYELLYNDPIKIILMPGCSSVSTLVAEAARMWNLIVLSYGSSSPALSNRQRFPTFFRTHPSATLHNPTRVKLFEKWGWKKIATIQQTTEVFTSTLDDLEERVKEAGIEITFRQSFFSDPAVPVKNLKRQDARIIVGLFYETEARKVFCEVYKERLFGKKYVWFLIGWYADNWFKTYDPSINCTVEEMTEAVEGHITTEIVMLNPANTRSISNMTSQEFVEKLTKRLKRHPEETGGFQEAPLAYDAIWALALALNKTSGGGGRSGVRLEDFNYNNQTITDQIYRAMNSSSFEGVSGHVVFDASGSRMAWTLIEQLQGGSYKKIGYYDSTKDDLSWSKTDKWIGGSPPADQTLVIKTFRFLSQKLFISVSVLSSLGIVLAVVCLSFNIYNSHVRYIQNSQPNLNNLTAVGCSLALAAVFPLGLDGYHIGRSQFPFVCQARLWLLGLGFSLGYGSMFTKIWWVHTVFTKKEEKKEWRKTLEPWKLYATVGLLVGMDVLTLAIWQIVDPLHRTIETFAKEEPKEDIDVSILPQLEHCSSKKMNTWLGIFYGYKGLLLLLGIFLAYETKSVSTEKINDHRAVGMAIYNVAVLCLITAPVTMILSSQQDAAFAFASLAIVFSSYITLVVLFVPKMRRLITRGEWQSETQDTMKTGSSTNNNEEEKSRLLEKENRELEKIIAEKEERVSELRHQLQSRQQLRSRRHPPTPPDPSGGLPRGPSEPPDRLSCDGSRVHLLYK

| IC50 [2] [µM] | Ki [3] [µM] | SMILES | IC50 [1] [µM] | ED50 [4] [µmol/kg] | ED50 [5] [µmol/kg] |
| --- | --- | --- | --- | --- | --- |
| > 100 | 37 | CC1(c2cc(O)no2)CCNCC1 |  |  |  |
| > 10 |  | Oc1noc(C2CCNCC2)c1Cc1c2ccccc2cc2ccccc12 | 1.3 |  |  |
| > 100 | 4.9 | Oc1noc(C2CCNCC2)c1CC1CCCCC1 | 1.1 |  |  |
| > 100 | 1.8 | CCCCCCCCc1c(O)noc1C1CCNCC1 | 0.44 |  |  |
| > 100 | 0.36 | Oc1noc(C2CCNCC2)c1CC(c1ccccc1)c1ccccc1 | 0.81 |  |  |
| > 10 | 0.068 | Oc1noc(C2CCNCC2)c1CCC(c1ccccc1)c1ccccc1 | 0.02 | 0.21 | > 45 |
| > 100 | 0.7 | Oc1noc(C2CCNCC2)c1CCCC(c1ccccc1)c1ccccc1 | 0.05 |  |  |
| > 10 |  | Oc1noc(C2CCNCC2)c1CCc1ccc2ccccc2c1 | 0.89 |  |  |
| > 100 | 1.1 | Oc1noc(C2CCNCC2)c1CCCc1ccccc1 | 0.53 |  |  |
| > 10 | 1.7 | Oc1noc(C2CCNCC2)c1CCc1cccc2ccccc12 | 1.5 |  |  |
| > 10 | 0.4 | Oc1noc(C2CCNCC2)c1Cc1ccc(-c2ccccc2)cc1 | 0.71 |  |  |
| > 10 | 0.96 | Oc1noc(C2CCNCC2)c1C(c1ccccc1)c1ccccc1 | 0.78 |  |  |
| > 10 | 5 | Oc1noc(C2CCNCC2)c1CCc1ccccc1 | 4.1 |  |  |
| > 10 | 0.1 | Oc1noc(C2CCNCC2)c1Cc1cccc2ccccc12 | 0.48 |  |  |
| > 100 |  | Oc1noc(C2CCNCC2)c1Cc1ccccc1 | 4 |  |  |
| > 10 |  | Oc1noc(C2CCNCC2)c1Cc1ccc2ccccc2c1 | 0.37 | 0.024 | > 51 |

| SMILES | IC50 [2] [µM] | Ki [3] [µM] | IC50 [1] [µM] | ED50 [4] [µmol/kg] | ED50 [5] [µmol/kg] |
| --- | --- | --- | --- | --- | --- |
| CCc1c(O)noc1C1CCNCC1 | > 100 |  | 10.3 |  |  |
| Cc1c(O)noc1C1CCNCC1 | > 100 |  | 26 |  |  |
| CCCCc1c(O)noc1C1CCNCC1 | > 100 |  | 3 |  |  |
| CCCCCCc1c(O)noc1C1CCNCC1 | > 100 | 4.5 | 1.1 |  |  |
| CCCc1c(O)noc1C1CCNCC1 | > 100 | 6.6 | 4.6 |  |  |
